# According to PMC2248166, “Quantitative peptide binding motifs for 19 human and mouse MHC class I molecules derived using positional scanning combinatorial peptide libraries” (Immunome Research, 2008):
# How the values were obtained:
# HLA A*3001 = HLA A*3001 (Homo sapiens, UniProt P04439, D140H/D185E/E176W/F33S/G80R/H175R/K168Q/R138E/R41S); assay: biochemical; format: binding
# HLA A*3201 = HLA A*3201 (Homo sapiens, UniProt P04439, A270S/D101S/D185E/E176V/E277Q/F133L/G103R/G107R/G231S/H175R/I121M/I218V/I322F/K168Q/L105A/L300P/L318F/M331R/P208A/P217A/Q94H/R106L/R138Q/S129P/T104I/T323A/T345S/V100E/V321M/V358M); assay: biochemical; format: binding
# HLA A*6802 = HLA A*6802 (Homo sapiens, UniProt P04439, A269V/D140Y/D185E/E176V/E277Q/E87N/F33Y/G231S/I121R/I166T/I218V/L180W/L300P/L318F/N151K/P208A/P217A/Q86R/R138H/R169H/S129P/T345S/V36M); format: binding
# HLA B*0702 = HLA B*0702 (Homo sapiens, UniProt P01889); format: binding; conditions: positional scanning combinatorial 9-mer library; normalized to 1.0 for the best residue at each position
# HLA B*0801 = HLA B*0801 (Homo sapiens, UniProt P01889, A93T/A95T/D138N/E176V/E187T/K202T/Q94N/R180D/S35A/V36M/Y33D/Y91F); assay: biochemical; format: binding
# HLA B*1501 = HLA B*1501 (Homo sapiens, UniProt P01889, A329T/A93T/A95T/C349S/D201E/D98Y/E187L/E204Q/E69M/E70A/K202T/N87E/Q94N/R155S/R180W/S121R/S35A/S48A/V306I/V36M/Y140S/Y91S); assay: biochemical; format: binding
# HLA B*1503 = HLA B*1503 (Homo sapiens, UniProt P01889, A329T/A93T/A95T/C349S/D201E/D98Y/E187L/E204Q/K202T/N87E/Q94N/R155S/R180L/S121R/S35A/V306I/V36M/Y140S/Y91S); assay: biochemical; format: binding
# HLA B*2705 = HLA B*2705 (Homo sapiens, UniProt P01889, D138H/D201E/E176V/E204Q/G107R/H137Y/K202T/N104T/N87E/Q56L/Q94K/R106L/R155S/R180L/S101D/S121N/S48T/Y140D/Y33H/Y91C); format: binding; conditions: positional scanning combinatorial 9-mer library; normalized to 1.0 for the best residue at each position
# HLA B*3501 = HLA B*3501 (Homo sapiens, UniProt P01889, A329T/A93T/A95T/C349S/D201E/D98Y/E176V/E187L/E204Q/E69T/I218V/K202T/L119I/Q94N/R155S/R180L/S121R/S35A/S48A/T118I/V127L/V306I/V36M/Y140S/Y91F); format: binding
# HLA B*5101 = HLA B*5101 (Homo sapiens, UniProt P01889, A329T/A93T/A95T/C349S/D138N/D201E/D98Y/E187L/E204Q/E69T/G107R/I218V/K202T/L105A/L119W/N104I/Q94N/R106L/R155S/R180L/S101N/S121T/S35A/S48A/V306I/V36M/Y195H/Y91F); format: binding
# HLA B*5301 = HLA B*5301 (Homo sapiens, UniProt P01889, A329T/A93T/A95T/C349S/D201E/D98Y/E176V/E187L/E204Q/E69T/G107R/I218V/K202T/L105A/L119I/N104I/Q94N/R106L/R155S/R180L/S101N/S121R/S35A/S48A/T118I/V127L/V306I/V36M/Y140S/Y91F); format: binding
# HLA B*5401 = HLA B*5401 (Homo sapiens, UniProt P01889, A329T/C349S/D138N/D201E/E176V/E187T/E204Q/E69G/I76V/K202T/L119W/R155S/R180L/S121T/S35A/S48A/V127L/V306I/V36M/Y140L); format: binding
# HLA B*5801 = HLA B*5801 (Homo sapiens, UniProt P01889, A329T/C349S/D201E/D98Y/E176V/E187L/E204Q/E69T/G107R/I218V/I90N/K202T/L105A/L119I/N104I/N87E/Q89R/Q94S/R106L/R155S/R180L/R86G/S101N/S121R/S35A/S48A/T118I/V127L/V306I/V36M/Y140S/Y91M); format: binding
# HLA B*5802 = HLA B*5802 (Homo sapiens, UniProt P01889, A329T/C349S/D201E/D98Y/E176V/E187L/E204Q/E69T/G107R/I218V/I90N/K202T/L105A/N104I/N87E/Q89R/Q94S/R106L/R155S/R180L/R86G/S101N/S121W/S35A/S48A/V127L/V306I/V36M/Y140S/Y91M); format: binding
# H-2 D^b = H-2 D^b (Mus musculus, UniProt P01899); format: binding
# H-2 D^d = H-2 D^d (Mus musculus, UniProt P01900); format: binding
# H-2 K^k = H-2 K^k (Mus musculus, UniProt P04223); format: binding
# HLA A*0201 = HLA A*0201 (Homo sapiens, UniProt P04439, D140Y/D185E/D98H/E176V/E277Q/G131W/G231S/I119V/I121R/I166T/I218V/L300P/L318F/N151K/N90K/P208A/P217A/Q86G/Q94H/R138H/R169H/T345S); conditions: positional scanning combinatorial 9-mer library; normalized to 1.0 for the best residue at each position
# H-2 K^k, sequence (P01887 21-119): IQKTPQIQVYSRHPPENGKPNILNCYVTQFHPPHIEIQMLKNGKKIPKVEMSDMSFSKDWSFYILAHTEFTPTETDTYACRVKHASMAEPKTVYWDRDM
# H-2 K^k, sequence (P04223 22-369): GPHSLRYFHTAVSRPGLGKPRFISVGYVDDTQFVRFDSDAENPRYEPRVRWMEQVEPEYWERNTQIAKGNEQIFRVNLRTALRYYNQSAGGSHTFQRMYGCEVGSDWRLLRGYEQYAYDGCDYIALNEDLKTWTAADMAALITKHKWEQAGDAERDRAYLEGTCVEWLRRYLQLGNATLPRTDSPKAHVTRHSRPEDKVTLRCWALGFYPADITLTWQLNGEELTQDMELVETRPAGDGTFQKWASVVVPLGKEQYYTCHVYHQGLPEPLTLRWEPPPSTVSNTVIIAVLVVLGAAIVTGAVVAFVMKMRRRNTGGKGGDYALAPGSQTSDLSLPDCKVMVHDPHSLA
# H-2 D^b, sequence (P01887 21-119): as the sequence (P01887 21-119) above
# H-2 D^b, sequence (P01899 25-362): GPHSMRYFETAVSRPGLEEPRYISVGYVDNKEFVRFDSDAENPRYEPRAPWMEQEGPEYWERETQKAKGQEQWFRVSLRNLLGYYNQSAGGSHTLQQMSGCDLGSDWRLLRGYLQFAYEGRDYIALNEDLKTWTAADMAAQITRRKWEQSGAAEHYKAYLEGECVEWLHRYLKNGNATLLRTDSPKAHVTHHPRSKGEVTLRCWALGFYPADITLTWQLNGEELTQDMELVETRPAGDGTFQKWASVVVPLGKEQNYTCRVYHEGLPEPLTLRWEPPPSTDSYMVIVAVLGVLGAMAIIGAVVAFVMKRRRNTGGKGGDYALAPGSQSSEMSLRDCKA
# H-2 D^d, sequence (P01900 whole entry, looked up): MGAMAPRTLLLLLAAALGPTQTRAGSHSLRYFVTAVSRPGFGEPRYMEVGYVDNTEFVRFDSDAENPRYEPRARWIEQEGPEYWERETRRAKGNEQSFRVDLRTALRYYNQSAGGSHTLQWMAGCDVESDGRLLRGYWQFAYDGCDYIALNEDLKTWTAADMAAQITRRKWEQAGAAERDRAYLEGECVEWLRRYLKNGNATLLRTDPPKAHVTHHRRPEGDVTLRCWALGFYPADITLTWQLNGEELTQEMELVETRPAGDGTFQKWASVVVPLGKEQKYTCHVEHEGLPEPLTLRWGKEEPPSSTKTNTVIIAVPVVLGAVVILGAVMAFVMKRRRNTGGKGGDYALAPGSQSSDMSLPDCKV
Sequence,"Normalized average relative binding affinity (ARB), HLA A*3001 (HLA A*3001)","Normalized average relative binding affinity (ARB), HLA A*3201 (HLA A*3201)","Normalized average relative binding affinity (ARB), HLA A*6802 (HLA A*6802)","Normalized average relative binding affinity (ARB), HLA B*0702 (HLA B*0702)","Normalized average relative binding affinity (ARB), HLA B*0801 (HLA B*0801)","Normalized average relative binding affinity (ARB), HLA B*1501 (HLA B*1501)","Normalized average relative binding affinity (ARB), HLA B*1503 (HLA B*1503)","Normalized average relative binding affinity (ARB), HLA B*2705 (HLA B*2705)","Normalized average relative binding affinity (ARB), HLA B*3501 (HLA B*3501)","Normalized average relative binding affinity (ARB), HLA B*5101 (HLA B*5101)","Normalized average relative binding affinity (ARB), HLA B*5301 (HLA B*5301)","Normalized average relative binding affinity (ARB), HLA B*5401 (HLA B*5401)","Normalized average relative binding affinity (ARB), HLA B*5801 (HLA B*5801)","Normalized average relative binding affinity (ARB), HLA B*5802 (HLA B*5802)","Normalized average relative binding affinity (ARB), H-2 Db (H-2 D^b)","Normalized average relative binding affinity (ARB), H-2 Dd (H-2 D^d)","Normalized average relative binding affinity (ARB), H-2 Kk (H-2 K^k)","Normalized average relative binding affinity (ARB), HLA A*0201 (HLA A*0201)"
XPXXXXXXX [3064.0033],0.024,0.022,0.041,1.0,1.0,0.015,0.031,0.0016,1.0,1.0,1.0,0.19,0.014,0.051,0.036,0.064,0.017,0.0034
XQXXXXXXX [3064.0034],0.33,0.32,0.0081,0.011,0.13,1.0,1.0,0.016,0.039,0.11,0.047,0.0034,0.024,0.21,1.0,0.015,0.053,0.14
XRXXXXXXX [3064.0035],0.048,0.0090,0.0069,0.0078,0.30,0.024,0.059,1.0,0.068,0.022,0.0045,0.0042,0.017,0.030,0.036,0.028,0.0071,0.0016
XSXXXXXXX [3064.0036],0.38,0.21,0.27,0.0043,0.13,0.59,0.13,0.012,0.059,0.10,0.031,0.050,1.0,1.0,0.80,0.022,0.014,0.0092
XTXXXXXXX [3064.0037],0.77,1.0,0.63,0.014,0.038,0.29,0.026,0.0033,0.042,0.042,0.022,0.028,0.71,0.79,0.22,0.019,0.0085,0.038
XVXXXXXXX [3064.0038],1.0,0.23,1.0,0.086,0.17,0.39,0.017,0.0016,0.062,0.10,0.10,0.024,0.14,0.12,0.20,0.016,0.0062,0.098
